In ChEMBL document CHEMBL1142070, “Antimicrobial susceptibility and synergy studies of Burkholderia cepacia complex isolated from patients with cystic fibrosis” (2007):
Values after ≈ are worked out from the molar mass of the structure shown.

Tests used:
Type in all cases: functional
[1] = test system: Burkholderia cepacia; assay: Antimicrobial susceptibility of Burkholderia cepacia complex isolated from cystic fibrosis patient assessed as percent susceptible isolates
[2] = test system: Burkholderia cepacia; assay: Antimicrobial activity against Burkholderia cepacia complex isolated from cystic fibrosis patient by broth microdilution assay
[3] = test system: Burkholderia cepacia; assay: Antimicrobial susceptibility of Burkholderia cepacia complex isolated from cystic fibrosis patient assessed as percent resistant isolates

| SMILES | Activity [1] [%] | MIC50 [2] [µg/mL] | MIC90 [2] [µg/mL] | Activity [3] [%] |
| --- | --- | --- | --- | --- |
| NCC[C@H](O)C(=O)N[C@@H]1C[C@H](N)[C@@H](O[C@H]2O[C@H](CN)[C@@H](O)[C@H](O)[C@H]2O)[C@H](O)[C@H]1O[C@H]1O[C@H](CO)[C@@H](O)[C@H](N)[C@H]1O [AMIKACIN] | 4 |  |  |  |
| C[C@H]1[C@H](NC(=O)/C(=N\OC(C)(C)C(=O)O)c2csc(N)n2)C(=O)N1S(=O)(=O)O [AZTREONAM] | 2 |  |  |  |
| CO/N=C(\C(=O)N[C@@H]1C(=O)N2C(C(=O)[O-])=C(C[N+]3(C)CCCC3)CS[C@H]12)c1csc(N)n1 [CEFEPIME] | 8 |  |  |  |
| CC(C)(O/N=C(\C(=O)N[C@@H]1C(=O)N2C(C(=O)[O-])=C(C[n+]3ccccc3)CS[C@H]12)c1csc(N)n1)C(=O)O [CEFTAZIDIME] | 23 | 32 (≈ 58.5 µM) | 128 (≈ 234 µM) | 65 |
| O=C(N[C@H](CO)[C@H](O)c1ccc([N+](=O)[O-])cc1)C(Cl)Cl [CHLORAMPHENICOL] | 5 | 64 (≈ 198 µM) | > 64 | 85 |
| O=C(O)c1cn(C2CC2)c2cc(N3CCNCC3)c(F)cc2c1=O [CIPROFLOXACIN] | 5 |  |  |  |
| C[C@H]1c2cccc(O)c2C(=O)C2=C(O)[C@]3(O)C(=O)C(C(N)=O)=C(O)[C@@H](N(C)C)[C@@H]3[C@@H](O)[C@@H]21.O [DOXYCYCLINE] | 22 | 16 | > 32 | 61 |
| C[C@@H](O)[C@H]1C(=O)N2C(C(=O)O)=C(SCCNC=N)C[C@H]12 [IMIPENEM ANHYDROUS] | 7 |  |  |  |
| C[C@@H](O)[C@H]1C(=O)N2C(C(=O)O)=C(S[C@@H]3CN[C@H](C(=O)N(C)C)C3)[C@H](C)[C@H]12 [MEROPENEM] | 26 | 8 (≈ 20.9 µM) | 32 (≈ 83.4 µM) | 48 |
| CN(C)c1ccc(O)c2c1C[C@H]1C[C@H]3[C@H](N(C)C)C(O)=C(C(N)=O)C(=O)[C@@]3(O)C(O)=C1C2=O [MINOCYCLINE] | 38 | 8 (≈ 17.5 µM) | 32 (≈ 69.9 µM) | 37 |
| CCN1CCN(C(=O)N[C@@H](C(=O)N[C@@H]2C(=O)N3[C@@H]2SC(C)(C)[C@@H]3C(=O)O)c2ccccc2)C(=O)C1=O [PIPERACILLIN] | 11 | 256 (≈ 495 µM) | > 256 | 80 |
| CO[C@H]1/C=C/O[C@@]2(C)Oc3c(C)c(O)c4c(O)c(c(/C=N/N5CCN(C)CC5)c(O)c4c3C2=O)NC(=O)/C(C)=C\C=C\[C@H](C)[C@H](O)[C@@H](C)[C@@H](O)[C@@H](C)[C@H](OC(C)=O)[C@@H]1C [RIFAMPIN] | 1 |  |  |  |
| CC1(C)S[C@@H]2[C@H](NC(=O)[C@H](C(=O)O)c3ccsc3)C(=O)N2[C@H]1C(=O)O [TICARCILLIN] | 2 |  |  |  |
